{"source": "patent US9492471B2", "about": "“Methods of treating a disease or disorder associated with Bruton'S Tyrosine Kinase” (Celgene Avilomics Research, Inc., priority 2013, dated 2016)", "experiment_in_all_cases": "HotSpot kinase profiling", "format_in_all_cases": "biochemical", "key": {"BLK": {"target": "T1, BLK (Homo sapiens, UniProt P51451)", "T1 construct": "purchased Reaction Biology Corp", "T1 sequence (P51451 whole entry)": "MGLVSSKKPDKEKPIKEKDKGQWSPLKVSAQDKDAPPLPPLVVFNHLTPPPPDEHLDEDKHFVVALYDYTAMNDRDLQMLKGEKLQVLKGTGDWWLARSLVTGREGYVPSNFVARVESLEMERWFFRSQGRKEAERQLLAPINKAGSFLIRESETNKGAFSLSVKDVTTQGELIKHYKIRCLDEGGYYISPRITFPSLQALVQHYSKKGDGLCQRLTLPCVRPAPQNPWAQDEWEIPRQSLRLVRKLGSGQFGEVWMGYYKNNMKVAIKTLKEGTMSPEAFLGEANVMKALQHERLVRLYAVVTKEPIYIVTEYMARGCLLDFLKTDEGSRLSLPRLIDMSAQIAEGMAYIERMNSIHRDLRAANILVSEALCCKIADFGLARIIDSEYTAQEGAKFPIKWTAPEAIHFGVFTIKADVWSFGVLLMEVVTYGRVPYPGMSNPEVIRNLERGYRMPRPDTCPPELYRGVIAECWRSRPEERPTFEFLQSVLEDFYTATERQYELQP", "in_short": "(§1)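 Radio-isotope P81 filtration format. Substrate + required cofactors in reaction buffer, kinase added, 2 h RT. Stop, wash with 0.1% phosphoric acid, detect. % inhibition vs DMSO; mean of duplicates where repeated.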"}, "CK1g1": {"target": "T2, CK1g1 (Homo sapiens, UniProt Q9HCP0)", "T2 construct": "purchased Reaction Biology Corp", "in_short": "as §1"}, "EGFR": {"target": "T3, EGFR (Homo sapiens, UniProt P00533)", "T3 construct": "purchased Reaction Biology Corp", "in_short": "as §1"}, "EPHA3": {"target": "T4, EPHA3 (Homo sapiens, UniProt P29320)", "T4 construct": "purchased Reaction Biology Corp", "T4 sequence (P29320 21-983)": "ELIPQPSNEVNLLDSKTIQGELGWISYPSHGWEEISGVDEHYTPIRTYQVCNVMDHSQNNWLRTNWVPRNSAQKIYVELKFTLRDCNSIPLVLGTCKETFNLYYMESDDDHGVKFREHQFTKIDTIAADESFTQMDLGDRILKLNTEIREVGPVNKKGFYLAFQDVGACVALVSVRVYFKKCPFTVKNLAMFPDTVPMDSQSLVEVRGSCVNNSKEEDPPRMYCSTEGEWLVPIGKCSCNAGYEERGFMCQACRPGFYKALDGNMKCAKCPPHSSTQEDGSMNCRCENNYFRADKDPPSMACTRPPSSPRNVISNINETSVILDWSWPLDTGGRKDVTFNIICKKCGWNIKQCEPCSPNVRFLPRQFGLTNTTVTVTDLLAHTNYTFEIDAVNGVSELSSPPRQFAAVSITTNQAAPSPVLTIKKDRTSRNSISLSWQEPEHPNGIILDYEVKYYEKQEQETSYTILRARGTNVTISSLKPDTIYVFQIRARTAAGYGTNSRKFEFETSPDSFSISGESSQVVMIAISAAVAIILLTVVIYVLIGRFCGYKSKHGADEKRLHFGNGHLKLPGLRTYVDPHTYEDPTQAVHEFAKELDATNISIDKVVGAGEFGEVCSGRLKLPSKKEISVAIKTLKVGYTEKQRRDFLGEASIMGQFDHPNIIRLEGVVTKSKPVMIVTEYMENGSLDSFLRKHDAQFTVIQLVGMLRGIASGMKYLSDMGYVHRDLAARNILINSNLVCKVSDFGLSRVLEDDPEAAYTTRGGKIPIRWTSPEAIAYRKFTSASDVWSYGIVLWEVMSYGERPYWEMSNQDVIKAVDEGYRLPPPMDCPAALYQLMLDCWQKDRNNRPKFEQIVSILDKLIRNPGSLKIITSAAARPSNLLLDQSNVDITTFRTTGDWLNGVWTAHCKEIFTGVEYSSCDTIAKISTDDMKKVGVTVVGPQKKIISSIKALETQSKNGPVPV", "in_short": "as §1"}, "FER": {"target": "T5, FER (Homo sapiens, UniProt P16591)", "T5 construct": "purchased Reaction Biology Corp", "T5 sequence (P16591 whole entry)": "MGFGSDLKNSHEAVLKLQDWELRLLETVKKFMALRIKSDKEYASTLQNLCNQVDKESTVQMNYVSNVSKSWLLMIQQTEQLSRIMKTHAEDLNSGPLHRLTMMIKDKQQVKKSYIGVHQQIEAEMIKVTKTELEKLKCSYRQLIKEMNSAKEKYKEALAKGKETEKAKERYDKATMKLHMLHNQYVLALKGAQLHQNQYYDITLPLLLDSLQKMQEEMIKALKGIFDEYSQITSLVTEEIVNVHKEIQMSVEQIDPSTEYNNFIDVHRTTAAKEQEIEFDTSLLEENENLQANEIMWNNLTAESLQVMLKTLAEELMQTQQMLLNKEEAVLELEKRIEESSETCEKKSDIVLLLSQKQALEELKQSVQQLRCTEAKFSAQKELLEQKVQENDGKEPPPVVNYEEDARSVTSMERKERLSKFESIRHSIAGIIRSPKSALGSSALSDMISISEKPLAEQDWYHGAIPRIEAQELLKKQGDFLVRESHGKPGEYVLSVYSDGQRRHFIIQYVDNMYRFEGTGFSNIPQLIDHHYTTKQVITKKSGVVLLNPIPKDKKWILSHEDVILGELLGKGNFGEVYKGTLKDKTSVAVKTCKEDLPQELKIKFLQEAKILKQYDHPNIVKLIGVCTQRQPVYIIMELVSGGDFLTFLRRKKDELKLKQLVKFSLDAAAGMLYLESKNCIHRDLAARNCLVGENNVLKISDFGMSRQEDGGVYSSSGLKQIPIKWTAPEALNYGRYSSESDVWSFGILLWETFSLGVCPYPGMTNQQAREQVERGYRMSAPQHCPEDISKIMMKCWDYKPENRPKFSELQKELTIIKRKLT", "in_short": "as §1"}, "MAPKAPK2": {"target": "T6, MAPKAPK2 (Homo sapiens, UniProt P49137)", "T6 construct": "purchased Reaction Biology Corp", "T6 sequence (P49137 whole entry)": "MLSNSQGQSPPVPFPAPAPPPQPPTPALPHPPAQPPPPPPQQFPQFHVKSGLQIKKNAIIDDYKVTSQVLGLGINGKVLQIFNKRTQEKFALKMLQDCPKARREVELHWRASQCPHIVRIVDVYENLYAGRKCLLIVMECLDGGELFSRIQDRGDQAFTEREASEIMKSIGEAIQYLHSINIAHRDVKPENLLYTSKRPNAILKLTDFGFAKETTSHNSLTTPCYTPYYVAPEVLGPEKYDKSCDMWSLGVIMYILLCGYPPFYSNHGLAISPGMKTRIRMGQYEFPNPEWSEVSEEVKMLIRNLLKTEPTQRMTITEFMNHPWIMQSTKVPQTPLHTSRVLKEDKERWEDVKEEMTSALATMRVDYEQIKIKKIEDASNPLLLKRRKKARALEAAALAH", "in_short": "as §1"}, "MRCKa/CDC42BPA": {"target": "T7, MRCKa/CDC42BPA (Homo sapiens, UniProt Q5VT25)", "T7 construct": "purchased Reaction Biology Corp", "in_short": "as §1"}, "MSK2/RPS6KA4": {"target": "T8, MSK2/RPS6KA4 (Homo sapiens, UniProt O75676)", "T8 construct": "purchased Reaction Biology Corp", "T8 sequence (O75676 whole entry)": "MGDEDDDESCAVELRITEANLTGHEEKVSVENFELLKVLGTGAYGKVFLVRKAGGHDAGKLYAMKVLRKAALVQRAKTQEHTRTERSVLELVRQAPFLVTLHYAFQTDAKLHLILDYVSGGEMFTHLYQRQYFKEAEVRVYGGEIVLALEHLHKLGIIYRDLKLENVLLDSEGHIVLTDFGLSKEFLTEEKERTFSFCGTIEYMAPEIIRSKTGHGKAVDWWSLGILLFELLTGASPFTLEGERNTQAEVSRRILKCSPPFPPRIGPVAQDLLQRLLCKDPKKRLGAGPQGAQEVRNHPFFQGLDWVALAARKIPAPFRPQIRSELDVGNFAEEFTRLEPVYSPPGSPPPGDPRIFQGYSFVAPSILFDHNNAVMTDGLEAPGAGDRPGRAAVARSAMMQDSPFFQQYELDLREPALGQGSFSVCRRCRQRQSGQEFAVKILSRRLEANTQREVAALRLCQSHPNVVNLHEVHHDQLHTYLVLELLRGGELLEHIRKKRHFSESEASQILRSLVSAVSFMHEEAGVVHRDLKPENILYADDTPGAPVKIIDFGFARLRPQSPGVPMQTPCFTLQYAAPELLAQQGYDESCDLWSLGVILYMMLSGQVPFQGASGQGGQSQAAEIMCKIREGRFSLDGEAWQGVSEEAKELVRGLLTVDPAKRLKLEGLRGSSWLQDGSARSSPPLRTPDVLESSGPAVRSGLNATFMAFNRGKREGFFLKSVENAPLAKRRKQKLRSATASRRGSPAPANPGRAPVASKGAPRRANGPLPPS", "in_short": "as §1"}, "PHKg2": {"target": "T9, PHKg2 (Homo sapiens, UniProt P15735)", "T9 construct": "purchased Reaction Biology Corp", "T9 sequence (P15735 1-406)": "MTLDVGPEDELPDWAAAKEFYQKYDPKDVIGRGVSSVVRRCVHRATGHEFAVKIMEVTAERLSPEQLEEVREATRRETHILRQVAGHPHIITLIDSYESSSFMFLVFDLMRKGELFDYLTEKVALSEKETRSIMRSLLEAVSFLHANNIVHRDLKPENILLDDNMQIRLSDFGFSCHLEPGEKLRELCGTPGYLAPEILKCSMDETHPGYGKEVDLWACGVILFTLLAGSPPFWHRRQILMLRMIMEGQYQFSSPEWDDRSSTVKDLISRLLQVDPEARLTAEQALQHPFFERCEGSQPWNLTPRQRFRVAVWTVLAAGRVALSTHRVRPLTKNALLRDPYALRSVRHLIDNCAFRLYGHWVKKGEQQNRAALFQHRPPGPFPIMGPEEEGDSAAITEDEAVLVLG", "in_short": "as §1"}, "ROS/ROS1": {"target": "T10, ROS/ROS1 (Homo sapiens, UniProt P08922)", "T10 construct": "purchased Reaction Biology Corp", "T10 sequence (P08922 28-2347)": "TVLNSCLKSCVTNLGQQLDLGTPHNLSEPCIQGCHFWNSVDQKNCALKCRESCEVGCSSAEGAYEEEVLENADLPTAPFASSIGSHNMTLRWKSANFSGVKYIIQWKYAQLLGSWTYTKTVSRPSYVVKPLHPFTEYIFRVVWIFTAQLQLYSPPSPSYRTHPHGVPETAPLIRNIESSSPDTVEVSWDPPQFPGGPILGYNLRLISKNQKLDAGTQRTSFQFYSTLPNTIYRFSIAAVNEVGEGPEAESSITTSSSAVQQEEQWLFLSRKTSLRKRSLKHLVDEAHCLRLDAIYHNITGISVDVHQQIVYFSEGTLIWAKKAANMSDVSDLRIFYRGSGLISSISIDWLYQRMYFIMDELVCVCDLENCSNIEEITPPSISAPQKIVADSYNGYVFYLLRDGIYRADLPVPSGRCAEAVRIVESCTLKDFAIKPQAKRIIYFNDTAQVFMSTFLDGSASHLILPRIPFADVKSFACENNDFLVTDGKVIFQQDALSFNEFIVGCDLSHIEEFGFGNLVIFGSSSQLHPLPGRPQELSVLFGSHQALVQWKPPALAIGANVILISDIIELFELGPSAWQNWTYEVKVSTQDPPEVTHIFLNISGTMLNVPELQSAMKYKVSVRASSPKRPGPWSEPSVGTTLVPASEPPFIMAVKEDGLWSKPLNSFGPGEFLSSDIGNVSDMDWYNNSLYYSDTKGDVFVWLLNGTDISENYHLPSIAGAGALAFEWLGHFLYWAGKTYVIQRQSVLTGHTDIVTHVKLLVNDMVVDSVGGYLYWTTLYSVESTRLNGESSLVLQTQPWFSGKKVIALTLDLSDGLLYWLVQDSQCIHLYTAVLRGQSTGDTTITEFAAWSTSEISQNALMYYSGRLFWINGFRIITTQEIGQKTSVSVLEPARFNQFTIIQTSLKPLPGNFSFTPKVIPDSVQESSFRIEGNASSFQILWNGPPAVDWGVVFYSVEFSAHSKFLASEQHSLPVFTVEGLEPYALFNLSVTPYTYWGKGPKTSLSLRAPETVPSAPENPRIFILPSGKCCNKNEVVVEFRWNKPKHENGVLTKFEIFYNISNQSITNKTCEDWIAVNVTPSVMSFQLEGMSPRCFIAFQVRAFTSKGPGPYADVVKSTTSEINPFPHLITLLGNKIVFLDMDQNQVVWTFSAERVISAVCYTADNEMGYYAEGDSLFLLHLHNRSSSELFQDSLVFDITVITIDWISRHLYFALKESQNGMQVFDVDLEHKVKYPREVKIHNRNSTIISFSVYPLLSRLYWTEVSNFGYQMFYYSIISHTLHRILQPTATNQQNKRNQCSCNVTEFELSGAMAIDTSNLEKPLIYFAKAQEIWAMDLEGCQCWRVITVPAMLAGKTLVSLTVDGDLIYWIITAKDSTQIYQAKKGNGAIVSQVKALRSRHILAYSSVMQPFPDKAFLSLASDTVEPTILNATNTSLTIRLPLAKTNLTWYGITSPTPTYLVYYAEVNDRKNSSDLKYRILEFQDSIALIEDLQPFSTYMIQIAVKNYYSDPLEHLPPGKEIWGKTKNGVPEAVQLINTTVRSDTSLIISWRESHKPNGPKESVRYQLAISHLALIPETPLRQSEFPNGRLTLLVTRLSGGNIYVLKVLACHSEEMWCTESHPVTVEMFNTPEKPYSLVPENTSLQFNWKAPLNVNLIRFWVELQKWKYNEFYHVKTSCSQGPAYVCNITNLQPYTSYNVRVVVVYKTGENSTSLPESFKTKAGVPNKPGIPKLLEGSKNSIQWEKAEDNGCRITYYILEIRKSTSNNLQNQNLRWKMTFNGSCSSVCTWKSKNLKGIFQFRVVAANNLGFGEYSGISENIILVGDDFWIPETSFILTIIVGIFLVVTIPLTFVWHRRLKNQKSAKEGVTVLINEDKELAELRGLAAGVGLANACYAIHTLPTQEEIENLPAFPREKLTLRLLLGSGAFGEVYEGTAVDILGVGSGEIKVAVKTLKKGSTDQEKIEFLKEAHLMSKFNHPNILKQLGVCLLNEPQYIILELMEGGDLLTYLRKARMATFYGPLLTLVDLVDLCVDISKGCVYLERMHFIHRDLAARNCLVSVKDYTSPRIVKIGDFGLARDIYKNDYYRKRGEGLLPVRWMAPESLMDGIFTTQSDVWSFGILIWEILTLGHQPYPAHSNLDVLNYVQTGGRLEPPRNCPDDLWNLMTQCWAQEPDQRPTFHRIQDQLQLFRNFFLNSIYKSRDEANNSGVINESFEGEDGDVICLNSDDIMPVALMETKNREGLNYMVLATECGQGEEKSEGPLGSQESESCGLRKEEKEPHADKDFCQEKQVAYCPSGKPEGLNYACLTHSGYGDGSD", "in_short": "as §1"}, "[1]": {"conditions": "read-out: % Enzyme Activity (relative to DMSO controls) Run 1"}, "[2]": {"conditions": "read-out: % Enzyme Activity (relative to DMSO controls) Run 2"}}, "note": "Where two headings read alike, the source gives them in different places."}
{"molecule": "C=CC(=O)Nc1cccc(Nc2nc(Nc3ccc(OCCOC)c(F)c3)ncc2F)c1", "note": "[Compound 2]", "values": [{"measurement": "inhibition at 3 µM", "setting": "BLK", "result": 93.7, "unit": "%"}, {"measurement": "remaining activity at 3 µM", "setting": "BLK; [1]", "result": 6.3, "unit": "%"}, {"measurement": "remaining activity at 3 µM", "setting": "BLK; [2]", "result": 6.37, "unit": "%"}, {"measurement": "inhibition at 3 µM", "setting": "CK1g1", "result": 10.5, "unit": "%"}, {"measurement": "remaining activity at 3 µM", "setting": "CK1g1; [1]", "result": 88.8, "unit": "%"}, {"measurement": "remaining activity at 3 µM", "setting": "CK1g1; [2]", "result": 90.3, "unit": "%"}, {"measurement": "inhibition at 3 µM", "setting": "EGFR", "result": 80.3, "unit": "%"}, {"measurement": "remaining activity at 3 µM", "setting": "EGFR; [1]", "result": 19.2, "unit": "%"}, {"measurement": "remaining activity at 3 µM", "setting": "EGFR; [2]", "result": 20.2, "unit": "%"}, {"measurement": "inhibition at 3 µM", "setting": "EPHA3", "result": 1.81, "unit": "%"}, {"measurement": "remaining activity at 3 µM", "setting": "EPHA3; [1]", "result": 96.2, "unit": "%"}, {"measurement": "remaining activity at 3 µM", "setting": "EPHA3; [2]", "result": 100, "unit": "%"}, {"measurement": "inhibition at 3 µM", "setting": "FER", "result": 11.8, "unit": "%"}, {"measurement": "remaining activity at 3 µM", "setting": "FER; [1]", "result": 88.1, "unit": "%"}, {"measurement": "remaining activity at 3 µM", "setting": "FER; [2]", "result": 88.3, "unit": "%"}, {"measurement": "inhibition at 3 µM", "setting": "MAPKAPK2", "result": -7.86, "unit": "%"}, {"measurement": "remaining activity at 3 µM", "setting": "MAPKAPK2; [1]", "result": 110, "unit": "%"}, {"measurement": "remaining activity at 3 µM", "setting": "MAPKAPK2; [2]", "result": 106, "unit": "%"}, {"measurement": "inhibition at 3 µM", "setting": "MRCKa/CDC42BPA", "result": -14.3, "unit": "%"}, {"measurement": "remaining activity at 3 µM", "setting": "MRCKa/CDC42BPA; [1]", "result": 114, "unit": "%"}, {"measurement": "remaining activity at 3 µM", "setting": "MRCKa/CDC42BPA; [2]", "result": 115, "unit": "%"}, {"measurement": "inhibition at 3 µM", "setting": "MSK2/RPS6KA4", "result": -0.36, "unit": "%"}, {"measurement": "remaining activity at 3 µM", "setting": "MSK2/RPS6KA4; [1]", "result": 103, "unit": "%"}, {"measurement": "remaining activity at 3 µM", "setting": "MSK2/RPS6KA4; [2]", "result": 97.4, "unit": "%"}, {"measurement": "inhibition at 3 µM", "setting": "PHKg2", "result": -14.7, "unit": "%"}, {"measurement": "remaining activity at 3 µM", "setting": "PHKg2; [1]", "result": 118, "unit": "%"}, {"measurement": "remaining activity at 3 µM", "setting": "PHKg2; [2]", "result": 112, "unit": "%"}, {"measurement": "inhibition at 3 µM", "setting": "ROS/ROS1", "result": 86.6, "unit": "%"}, {"measurement": "remaining activity at 3 µM", "setting": "ROS/ROS1; [1]", "result": 13.5, "unit": "%"}, {"measurement": "remaining activity at 3 µM", "setting": "ROS/ROS1; [2]", "result": 13.3, "unit": "%"}]}
